Reference: US20240391882A1 (Mirati Therapeutics, Inc., priority 2023, published 2024)
pIC50: −log10 of the molar value.

Assays:
Assay type in all cases: cell-based
[1] = tested on: SKBR3 (PI3Kα wild type) cells; test: Cell viability (CellTiter-Glo 2.0) in SKBR3 cells; conditions: Homo sapiens, SK-BR-3; SKBR3 (PI3Kα wild type) cells, approximately 72 hours, CellTiter-Glo 2.0; read-out: SKBR3 (WT) Viability IC50
In short: (§1)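 SKBR3 or T47D cells, 1000 per well, were seeded overnight and then exposed ~72 h at 37° C to 10 concentrations of compound, 1:4 dilutions from 10 μm. Viability read by CellTiter-Glo luminescence as percent of vehicle; IC50 from four-parameter variable-slope fit.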

[2] = tested on: pAKT in T47D (PI3Kα H1047R mutant) cells; test: Inhibition of pAKT (alphaLISA Surefire Ultra AKT 1/2/3 pS473) in T47D cells; conditions: Homo sapiens; T47D (PI3Kα H1047R mutant) cells, 24 hr compound incubation, alphaLISA pS473; read-out: T47D (H1047R) pAKT 24 hr (IC50)
In short: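 Cells in HBSS were dosed from 10.4 μm (1:4 serial dilution, 10 concentrations) and incubated about 24 hours at 37° C, then lysed. pAKT S473 measured by alphaLISA after overnight bead incubation. Signal normalised to alpelisib (3.125 μm) and DMSO controls; IC50 from four-parameter fit.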

[3] = tested on: T47D (PI3Kα H1047R mutant) cells; test: Cell viability (CellTiter-Glo 2.0) in T47D cells; conditions: Homo sapiens, T47D, 72 h, approximately 72 hours
In short: as §1

Structure (SMILES) | pIC50 [1] | pIC50 [2] | pIC50 [3]
Cc1cc([C@@H](C)Nc2ccc(Cl)nc2C(=O)O)c2nc(N3CCC(F)(F)CC3)c(C)nc2c1 [Example 35, (R)-6-chloro-3-((1-(3-(4,4-difluoropiperidin-1-yl)-2,7-dimethylquinoxalin-5-yl)ethyl)amino)picolinic acid] | 5.08 | 8.51 | 6.78
Cc1cc([C@@H](C)Nc2ccc(Cl)nc2C(=O)O)c2nc(N3CC4(CC(O)C4)C3)c(C#N)nc2c1 [Example 259, (R)-6-chloro-3-((1-(2-cyano-3-(6-hydroxy-2-azaspiro[3.3]heptan-2-yl)-7-methylquinoxalin-5-yl)ethyl)amino)picolinic acid] | < 5.00 | 8.82 | 7.12
COC1(C)CN(c2nc3c([C@@H](C)Nc4ccccc4C(=O)O)cc(C)cc3nc2C#N)C1 [Example 63, (R)-2-((1-(2-cyano-3-(3-methoxy-3-methylazetidin-1-yl)-7-methylquinoxalin-5-yl)ethyl)amino)benzoic acid] | 5.01 | 7.78 | 6.59
Cc1cc([C@@H](C)Nc2ccc(Cl)nc2C(=O)O)c2nc(N3C[C@@H](F)[C@@H](C)C3)c(C#N)nc2c1 [Example 245, 6-chloro-3-(((R)-1-(2-cyano-3-((3S,4S)-3-fluoro-4-methylpyrrolidin-1-yl)-7-methylquinoxalin-5-yl)ethyl)amino)picolinic acid] | 5.26 | 8.96 | 7.20
Cc1cc([C@@H](C)Nc2ccc(Cl)nc2C(=O)O)c2nc(N3CCC4(CC4)C(F)(F)C3)c(C#N)nc2c1 [Example 22, (R)-6-chloro-3-((1-(2-cyano-3-(4,4-difluoro-6-azaspiro[2.5]octan-6-yl)-7-methylquinoxalin-5-yl)ethyl)amino)picolinic acid] | 5.27 | 8.72 | 7.10
Cc1cc([C@@H](C)Nc2ccc(Cl)nc2C(=O)O)c2nc(N3CC4(CCC4(F)F)C3)c(C#N)nc2c1 [Example 256, (R)-6-chloro-3-((1-(2-cyano-3-(5,5-difluoro-2-azaspiro[3.3]heptan-2-yl)-7-methylquinoxalin-5-yl)ethyl)amino)picolinic acid] | < 5.00 | 9.96 | 6.51
Cc1cc([C@@H](C)Nc2ccc(Cl)nc2C(=O)O)c2nc(N3CCC4(CCO4)CC3)c(C#N)nc2c1 [Example 250, (R)-6-chloro-3-((1-(2-cyano-7-methyl-3-(1-oxa-7-azaspiro[3.5]nonan-7-yl)quinoxalin-5-yl)ethyl)amino)picolinic acid] | 5.31 | 8.92 | 7.43
Cc1cc([C@@H](C)Nc2ccc(Cl)nc2C(=O)O)c2nc(N3CC4C[C@]4(C(F)(F)F)C3)c(C#N)nc2c1 (single isomer, unassigned) [Example 43B] | 5.39 | 7.77 | 6.57
C[C@@H](Nc1ccc(Cl)nc1C(=O)O)c1cc(C2CC2)cc2nc(C#N)c(N3CCC(F)(F)CC3)nc12 [Example 33, (R)-6-chloro-3-((1-(2-cyano-7-cyclopropyl-3-(4,4-difluoropiperidin-1-yl)quinoxalin-5-yl)ethyl)amino)picolinic acid] | 5.13 | 8.37 | 7.04
C[C@@H](Nc1ccc(Cl)nc1C(=O)O)c1cc(C(F)F)cc2nc(C#N)c(N3CCOCC3)nc12 [Example 231, (R)-6-chloro-3-((1-(2-cyano-7-(difluoromethyl)-3-morpholinoquinoxalin-5-yl)ethyl)amino)picolinic acid] | < 5.00 | 8.89 | 7.59
C[C@@H](Nc1ccc(Cl)nc1C(=O)O)c1cc(Cl)cc2nc(C#N)c(N3CC4(COC4)C3)nc12 [Example 145] | 5.00 | 8.85 | 7.05
Cc1cc([C@@H](C)Nc2ccc(Cl)nc2C(=O)O)c2nc(N3CCC4(CC3)COC4)c(C#N)nc2c1 [Example 249, (R)-6-chloro-3-((1-(2-cyano-7-methyl-3-(2-oxa-7-azaspiro[3.5]nonan-7-yl)quinoxalin-5-yl)ethyl)amino)picolinic acid] | 5.18 | 8.77 | 7.80
Cc1cc([C@@H](C)Nc2ccc(Cl)nc2C(=O)O)c2nc(N3CC4C(F)C4C3)c(C#N)nc2c1 (stereo partly drawn) [Example 215, 6-chloro-3-(((1R)-1-(2-cyano-3-(6-fluoro-3-azabicyclo[3.1.0]hexan-3-yl)-7-methylquinoxalin-5-yl)ethyl)amino)picolinic acid] | < 5.00 | 8.80 | 7.55
Cc1cc([C@@H](C)Nc2ccc(Cl)nc2C(=O)O)c2nc(NCC3CC3)c(C#N)nc2c1 [Example 25, (R)-6-chloro-3-((1-(2-cyano-3-((cyclopropylmethyl)amino)-7-methylquinoxalin-5-yl)ethyl)amino)picolinic acid] | < 5.00 | 8.92 | 6.76
Cc1cc([C@@H](C)Nc2ccc(Cl)nc2C(=O)O)c2nc(N3CC4(CC(F)C4)C3)c(C#N)nc2c1 [Example 258, (R)-6-chloro-3-((1-(2-cyano-3-(6-fluoro-2-azaspiro[3.3]heptan-2-yl)-7-methylquinoxalin-5-yl)ethyl)amino)picolinic acid] | 5.06 | 8.52 | 7.07
Cc1cc([C@@H](C)Nc2ccc(Cl)nc2C(=O)O)c2nc(N3CC4C[C@@]4(C(F)(F)F)C3)c(C#N)nc2c1 (single isomer, unassigned) [Example 43A] | < 5.00 | 8.32 | 7.00
Cc1cc([C@@H](C)Nc2ccc(Cl)nc2C(=O)O)c2nc(N3CCc4ccn(C)c(=O)c4C3)c(C#N)nc2c1 [Example 222, (R)-6-chloro-3-((1-(2-cyano-7-methyl-3-(7-methyl-8-oxo-3,4,7,8-tetrahydro-2,7-naphthyridin-2(1H)-yl)quinoxalin-5-yl)ethyl)amino)picolinic acid] | < 5.00 | 8.38 | 6.65
Cc1cc([C@@H](C)Nc2ccc(Cl)nc2C(=O)O)c2nc(N3CCc4cnccc4C3)c(C#N)nc2c1 [Example 216, (R)-6-chloro-3-((1-(2-cyano-3-(3,4-dihydro-2,6-naphthyridin-2(1H)-yl)-7-methylquinoxalin-5-yl)ethyl)amino)picolinic acid] | < 5.00 | 9.35 | 7.32
Cc1cc([C@@H](C)Nc2ccc(Cl)nc2C(=O)O)c2nc(N3CCc4c(ccn(C)c4=O)C3)c(C#N)nc2c1 [Example 221, (R)-6-chloro-3-((1-(2-cyano-7-methyl-3-(6-methyl-5-oxo-3,4,5,6-tetrahydro-2,6-naphthyridin-2(1H)-yl)quinoxalin-5-yl)ethyl)amino)picolinic acid] | < 5.00 | 9.06 | 6.83
C[C@@H](Nc1ccccc1C(=O)O)c1cc(F)cc2nc(C#N)c(N3CCC(F)(F)CC3)nc12 [Example 32, (R)-2-((1-(2-cyano-3-(4,4-difluoropiperidin-1-yl)-7-fluoroquinoxalin-5-yl)ethyl)amino)benzoic acid] | < 5.00 | 7.99 | 6.58

Further lines, results first:

pIC50 [1] | pIC50 [2] | pIC50 [3] | Structure (SMILES)
< 5.00 | 9.16 | 7.46 | Cc1cc([C@@H](C)Nc2ccc(Cl)nc2C(=O)O)c2nc(N3C[C@@H](F)C[C@H]3C)c(C#N)nc2c1 [Example 246A, 6-chloro-3-(((R)-1-(2-cyano-3-((2R,4S)-4-fluoro-2-methylpyrrolidin-1-yl)-7-methylquinoxalin-5-yl)ethyl)amino)picolinic acid]
5.51 | 9.26 | 7.78 | Cc1cc([C@@H](C)Nc2ccc(Cl)nc2C(=O)O)c2nc(N3C[C@H]4COC[C@@H]4C3)c(C#N)nc2c1 (single isomer, unassigned) [Example 229A]
5.43 | 8.32 | 6.86 | Cc1cc([C@@H](C)Nc2ccc(Cl)nc2C(=O)O)c2nc(N3CC4(CC[C@@H]4F)C3)c(C#N)nc2c1 (single isomer, unassigned) [Example 257A]
< 5.00 | 8.46 | 6.93 | Cc1cc([C@@H](C)Nc2ccc(Cl)nc2C(=O)O)c2nc(N3C[C@@H](C)OC[C@@H]3C)c(C#N)nc2c1 [Example 238B, 6-chloro-3-(((R)-1-(2-cyano-3-((2R,5S)-2,5-dimethylmorpholino)-7-methylquinoxalin-5-yl)ethyl)amino)picolinic acid]
5.16 | 8.24 | 7.11 | COC[C@@H]1CN(c2nc3c([C@@H](C)Nc4ccc(Cl)nc4C(=O)O)cc(C)cc3nc2C#N)CC1(F)F (single isomer, unassigned) [Example 211A]
< 5.00 | 7.98 | 6.66 | Cc1cc([C@@H](C)Nc2ccc(Cl)nc2C(=O)O)c2nc(N3C[C@H](C)OC[C@H]3C)c(C#N)nc2c1 [Example 238A, 6-chloro-3-(((R)-1-(2-cyano-3-((2S,5R)-2,5-dimethylmorpholino)-7-methylquinoxalin-5-yl)ethyl)amino)picolinic acid]
< 5.00 | 8.59 | 7.01 | Cc1cc([C@@H](C)Nc2ccc(Cl)nc2C(=O)O)c2nc(N3CCC[C@H]([C@@H](C)O)C3)c(C#N)nc2c1 [Example 261B, 6-chloro-3-(((R)-1-(2-cyano-3-((S)-3-((R)-1-hydroxyethyl)piperidin-1-yl)-7-methylquinoxalin-5-yl)ethyl)amino)picolinic acid]
